Source: publication PMC3776002 (International journal of infectious diseases : IJID : …, 2013)

Experiment: Steady-state plasma LPV pharmacokinetics with and without African potato
Assay type: in vivo, human
Details: for CLF (apparent clearance), arithmetic mean (SD): LPV; for AUC: AUCτ; for concentration at 12 h: Ctrough
[1] = plasma LPV, steady state, day 21, LPV/r plus African potato, n = 16
[2] = plasma LPV, expressed as a percentage of the GM of LPV/r alone, n = 16

Cc1cccc(C)c1OCC(=O)N[C@@H](Cc1ccccc1)[C@@H](O)C[C@H](Cc1ccccc1)NC(=O)[C@H](C(C)C)N1CCCNC1=O [LPV, Lopinavir]
CLF (apparent clearance), arithmetic mean (SD) (steady state, day 14, LPV/r alone, n = 16): 4.61 (1.56) l/h | CLF (apparent clearance), arithmetic mean (SD) (steady state, day 21, LPV/r plus African potato, n = 16): 4.64 (1.32) l/h | Cmax (human, plasma, oral): 10100 ng/mL | AUC (human, plasma, oral, arithmetic mean (SD), plasma LPV, steady state, day 14, LPV/r 400/100 mg twice daily alone, n = 16): 94400 ng·h/mL | AUC (human, plasma, oral, arithmetic mean (SD), plasma LPV, steady state, day 21, LPV/r 400/100 mg twice daily plus African potato four capsules once daily for 7 days, n = 16): 93200 ng·h/mL | concentration at 12 h (human, plasma, oral, arithmetic mean (SD), plasma LPV, steady state, day 14, LPV/r alone, n = 16): 4850 ng/mL | concentration at 12 h (human, plasma, oral, arithmetic mean (SD), plasma LPV, steady state, day 21, LPV/r plus African potato, n = 16): 4900 ng/mL | concentration at 12 h (human, plasma, oral, geometric mean, plasma LPV, steady state, day 14, LPV/r alone, n = 16): 4130 ng/mL | concentration at 12 h (human, plasma, oral, geometric mean, plasma LPV, steady state, day 21, LPV/r plus African potato, n = 16): 4380 ng/mL | AUCτ, geometric mean (plasma LPV, steady state, day 14, LPV/r alone, n = 16): 90780 ng·h/mL | AUCτ, geometric mean [1]: 89660 ng·h/mL | Cmax, arithmetic mean (SD) [1]: 10.18 (2.25) μg/ml | AUCτ, PE (point estimate of the ratio of geometric means of LPV/r plus African potato and LPV/r) [2]: 98.77% | Cmax, PE (point estimate of the ratio of geometric means of LPV/r plus African potato and LPV/r) [2]: 100.90% | Ctrough, PE (point estimate of the ratio of geometric means of LPV/r plus African potato and LPV/r) [2]: 105.98%
